# Read-outs that look alike come from different tables or passages of the source.
# What was measured:
# [1] = test system: E. coli Top10 producing CTX-M15; assay: MIC determination by microdilution, E. coli Top10 producing CTX-M15; format: cell-based, Escherichia coli; settings: Escherichia coli, read-out: MIC of β-lactam, inhibitor None
# Excerpt: (§1) Plasmid and strain construction. For antibiotic susceptibility testing, the R-lactamase genes were cloned into the vector pTRC-99k, which is a derivative of pTRC99a (Pharmacia) obtained by replacing the β-lactamase resistance gene by a kanamycin resistance gene (Km, lacl, pTRC promoter, oriVcolEl; D. Mengin-Lecreulx, unpublished). Recombinant plasmids were introduced by electrotransformation into Escherichia coli Top10. For β-lactamase production, fragments of the β-lactamase genes encoding soluble enzymes, i.e. devoid of the signal peptides, were cloned into the vector pET-TEV generating translational fusions with a vector-encoded N-terminal 6×His Tag followed by a TEV cleavage site ([…]) (1).
# (§2) MIC determination. MICs of β-lactams were determined by the microdilution method in MH broth according to Clinical and Laboratory Standards Institute (CLSI) recommendations (12). Diazabicyclooctane were used at a fixed concentration of 15 μM (4 μg/ml for avibactam). Clavulanate was tested at 4 μg/ml. IPTG (500 μM) was added to the microdilution plates to induce production of the -lactamase. The precultures were grown in BHI broth containing IPTG (500 μM) and kanamycin (50 μg/ml) for plasmid maintenance. Reported MICs are the medians from five biological repeats obtained in two independent experiments.
# E. coli Top10 = assay: MIC determination by microdilution, E. coli Top10 without β-lactamase (None); format: cell-based
# Excerpt: as §1, §2
# OXA-48 = molecular target: T1, OXA-48 (Klebsiella pneumoniae, UniProt Q6XEC0); assay: Kinetic parameters of β-lactamase carbamoylation/de-carbamoylation (nitrocefin), OXA-48; format: biochemical
# T1 construct: fragments of the β-lactamase genes encoding soluble enzymes, i.e. devoid of the signal peptides; 6xHis tag followed by TEV cleavage site ([…]) (N); made in house; host or cells: E. coli BL21 (DE3)
# T1 sequence (Q6XEC0 23-265 limits assumed): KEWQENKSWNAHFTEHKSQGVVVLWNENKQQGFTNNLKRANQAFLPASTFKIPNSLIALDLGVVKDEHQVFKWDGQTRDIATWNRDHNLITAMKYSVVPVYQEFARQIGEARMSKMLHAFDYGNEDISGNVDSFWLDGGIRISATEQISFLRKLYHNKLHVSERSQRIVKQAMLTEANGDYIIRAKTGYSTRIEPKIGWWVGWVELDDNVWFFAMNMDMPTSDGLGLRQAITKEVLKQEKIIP
# Excerpt: as §1
# (§3) Production and purification of β-lactamases. E. coli BL21 (DE3) harboring recombinant plasmids were grown in brain heart infusion (BHI) broth supplemented with kanamycin (50 μg/ml) at 37° C. under vigorous shaking until the optical density at 600 nm (OD600) reached 0.8. Isopropyl β-D-1-thiogalactopyranoside IPTG (0.5 mM) was added and incubation was continued at 16° C. for 18 h. Bacteria were harvested by centrifugation, re-suspended in 25 mM Tris-HCl (pH 7.5) containing 300 mM NaCl (buffer A) and lysed by sonication. The enzymes were purified from clarified lysates by affinity chromatography (NiNTA agarose, Sigma-Aldrich) and size exclusion chromatography in buffer A (Superdex 200 HL26/60, Amersham Pharmacia Biotech). Protein concentration was determined by the Biorad protein assay using bovine serum albumin as a standard.
# (§4) Determination of kinetic parameters. […] Briefly, the initial velocity (vi) was determined by spectrophotometry for various concentrations of β-lactams [S] and a fixed concentration of β-lactamase [E]. The values of vi were plotted as a function of [S]. The kinetic constants Km and kcat were determined by fitting the equation […] to the resulting curve. The molecular extinction coefficient was 14,600 M^−1 cm^−1 at 486 nm for nitrocefin. […] Kinetics constants were deduced from a minimum of 6 progress curves obtained in a minimum of two independent experiments.
# KPC-2 = molecular target: T2, KPC-2 (Klebsiella pneumoniae, UniProt Q9F663); assay: Kinetic parameters of β-lactamase carbamoylation/de-carbamoylation (nitrocefin), KPC-2; format: biochemical; settings: for Carbamoylation efficacy of β-lactamases by diazabicyclooctanes / De-carbamoylation rate constant k−2 for β-lactamase-diazabicyclooctane adducts: KPC-2, 20° C., nitrocefin 100 μM, MES pH 6.4
# T2 construct: fragments of the β-lactamase genes encoding soluble enzymes, i.e. devoid of the signal peptides; 6xHis tag followed by TEV cleavage site ([…]) (N); made in house; host or cells: E. coli BL21 (DE3)
# T2 sequence (Q9F663 25-293 limits assumed): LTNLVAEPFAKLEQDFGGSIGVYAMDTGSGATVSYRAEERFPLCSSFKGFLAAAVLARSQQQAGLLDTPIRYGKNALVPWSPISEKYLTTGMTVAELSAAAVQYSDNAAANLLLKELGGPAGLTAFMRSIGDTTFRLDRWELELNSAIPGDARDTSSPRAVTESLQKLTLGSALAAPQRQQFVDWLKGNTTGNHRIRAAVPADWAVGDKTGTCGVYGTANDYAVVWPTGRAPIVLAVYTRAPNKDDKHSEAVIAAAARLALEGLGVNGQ
# Excerpt: as §1, §3, §4
# AmpCEclo = molecular target: T3, AmpCEclo (Enterobacter cloacae, UniProt P05364); format: biochemical; settings: for Carbamoylation efficacy of β-lactamases by diazabicyclooctanes / De-carbamoylation rate constant k−2 for β-lactamase-diazabicyclooctane adducts: AmpCEclo, 20° C., nitrocefin 100 μM, MES pH 6.4
# T3 construct: fragments of the β-lactamase genes encoding soluble enzymes, i.e. devoid of the signal peptides; 6xHis tag followed by TEV cleavage site ([…]) (N); made in house; host or cells: E. coli BL21 (DE3)
# T3 sequence (P05364 21-381): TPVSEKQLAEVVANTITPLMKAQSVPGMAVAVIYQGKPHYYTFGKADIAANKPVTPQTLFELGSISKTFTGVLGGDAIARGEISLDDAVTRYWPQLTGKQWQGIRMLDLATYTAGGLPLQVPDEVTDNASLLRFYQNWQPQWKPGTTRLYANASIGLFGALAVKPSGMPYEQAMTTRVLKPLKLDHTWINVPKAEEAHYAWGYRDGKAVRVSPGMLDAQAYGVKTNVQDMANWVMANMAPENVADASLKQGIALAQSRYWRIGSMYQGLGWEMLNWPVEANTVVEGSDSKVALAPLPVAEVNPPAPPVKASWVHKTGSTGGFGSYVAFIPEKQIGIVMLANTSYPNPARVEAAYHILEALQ
# Description: as §3, §4
# CTX-M-15 = molecular target: T4, CTX-M-15 (Escherichia coli, UniProt Q9EXV5); assay: Kinetic parameters of β-lactamase carbamoylation/de-carbamoylation (nitrocefin), CTX-M-15; format: biochemical; settings: for Carbamoylation efficacy of β-lactamases by diazabicyclooctanes / De-carbamoylation rate constant k−2 for β-lactamase-diazabicyclooctane adducts: CTX-M-15, 20° C., nitrocefin 100 μM, MES pH 6.4
# T4 construct: fragments of the β-lactamase genes encoding soluble enzymes, i.e. devoid of the signal peptides; made in house; host or cells: E. coli BL21 (DE3)
# T4 sequence (Q9EXV5 entry or part of it): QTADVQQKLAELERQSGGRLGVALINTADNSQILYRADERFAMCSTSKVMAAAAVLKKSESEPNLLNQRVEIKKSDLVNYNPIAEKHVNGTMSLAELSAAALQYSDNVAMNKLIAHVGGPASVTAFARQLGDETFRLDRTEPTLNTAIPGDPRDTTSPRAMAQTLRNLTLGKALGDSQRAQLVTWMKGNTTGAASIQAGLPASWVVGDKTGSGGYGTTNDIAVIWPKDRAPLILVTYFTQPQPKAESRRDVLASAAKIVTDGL
# Excerpt: as §1, §3, §4
# TEM-1 = molecular target: T5, TEM-1 (Escherichia coli, UniProt P62593); assay: Kinetic parameters of β-lactamase carbamoylation/de-carbamoylation (nitrocefin), TEM-1; format: biochemical; settings: 20° C., nitrocefin 100 μM, MES pH 6.4
# T5 construct: fragments of the β-lactamase genes encoding soluble enzymes, i.e. devoid of the signal peptides; made in house; host or cells: E. coli BL21 (DE3)
# T5 sequence (P62593 24-286 limits assumed): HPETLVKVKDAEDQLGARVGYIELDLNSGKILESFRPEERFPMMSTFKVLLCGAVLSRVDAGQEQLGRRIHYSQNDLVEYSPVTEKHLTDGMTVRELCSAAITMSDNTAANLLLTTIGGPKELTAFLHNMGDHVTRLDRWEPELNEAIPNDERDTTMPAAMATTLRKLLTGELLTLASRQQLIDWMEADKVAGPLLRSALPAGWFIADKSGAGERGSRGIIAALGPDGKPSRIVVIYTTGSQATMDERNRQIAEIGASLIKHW
# Excerpt: as §1, §3, §4
# [2] = test system: E. coli Top10 producing AmpCEcl; assay: MIC determination by microdilution, E. coli Top10 producing AmpCEcl; format: cell-based; settings: Escherichia coli, read-out: MIC of β-lactam, inhibitor None
# Excerpt: as §1, §2
# [3] = OXA-48, 20° C., nitrocefin 100 μM, MES pH 6.4, NA = no inhibition at 100 μM
SMILES,Carbamoylation efficacy of β-lactamases by diazabicyclooctanes (KPC-2),De-carbamoylation rate constant k−2 for β-lactamase-diazabicyclooctane adducts (KPC-2),Carbamoylation efficacy of β-lactamases by diazabicyclooctanes (AmpCEclo),De-carbamoylation rate constant k−2 for β-lactamase-diazabicyclooctane adducts (AmpCEclo),Carbamoylation efficacy of β-lactamases by diazabicyclooctanes (CTX-M-15),De-carbamoylation rate constant k−2 for β-lactamase-diazabicyclooctane adducts (CTX-M-15),Carbamoylation efficacy of β-lactamases by diazabicyclooctanes (TEM-1),De-carbamoylation rate constant k−2 for β-lactamase-diazabicyclooctane adducts (TEM-1),further results
"CC1(C)S[C@@H]2[C@H](NC(=O)[C@H](N)c3ccc(O)cc3)C(=O)N2[C@H]1C(=O)O [Amoxicillin, reference compound]",–,–,–,–,–,–,–,–,"MIC [1]: 2050 µg/mL; MIC (E. coli Top10; Escherichia coli, TOP10, read-out: MIC of β-lactam, inhibitor None): 4 µg/mL"
"NC(=O)[C@@H]1CC[C@@H]2CN1C(=O)N2OS(=O)(=O)O [Avibactam, reference compound]",(2.6 ± 0.1) × 10^4 M^−1 s^−1,(4.0 ± 0.3) × 10^−3 s−1,(1.8 ± 0.1) × 10^4 M^−1 s^−1,(1.8 ± 0.2) × 10^−3 s−1,(1.3 ± 0.1) × 10^5 M^−1 s^−1,(1.1 ± 0.3) × 10^−3 s−1,(8.8 ± 0.2) × 10^4 M^−1 s^−1,(1.3 ± 0.1) × 10^−3 s−1,inhibition of β-lactamase OXA-48 (in words) (OXA-48): poorly inhibited; Carbamoylation efficacy of β-lactamases by diazabicyclooctanes (OXA-48; [3]): (9.8 ± 0.6) × 10^2 M^−1 s^−1; De-carbamoylation rate constant k−2 for β-lactamase-diazabicyclooctane adducts (OXA-48; [3]): (2.7 ± 0.1 ) × 10^−3 s−1; inhibition of β-lactamase AmpClo (in words) (AmpCEclo): poorly inhibited
C[C@H]1[C@H](NC(=O)/C(=N\OC(C)(C)C(=O)O)c2csc(N)n2)C(=O)N1S(=O)(=O)O [Aztreonam],–,–,–,–,–,–,–,–,"MIC (E. coli Top10; Escherichia coli, TOP10; read-out: MIC of β-lactam, inhibitor None): 0.5 µg/mL"
CO/N=C(\C(=O)N[C@@H]1C(=O)N2C(C(=O)O)=C(COC(C)=O)CS[C@H]12)c1csc(N)n1 [Cefotaxime],–,–,–,–,–,–,–,–,"MIC [2]: 128 µg/mL; MIC (E. coli Top10; Escherichia coli; Cefotaxime alone; E. coli Top10, β-lactamase None; read-out: MIC of β-lactam, inhibitor None): 0.12 µg/mL"
O=C1N2C[C@@H](CC[C@H]2Cn2cc(CN3CCOCC3)nn2)N1OS(=O)(=O)[O-].[Na+] [Compound 1a.i11],(1.9 ± 0.2) × 10^2 M^−1 s^−1,(3.0 ± 0.4) × 10^−3 s−1,(3.1 ± 0.3) × 10^1 M^−1 s^−1,(8.9 ± 2.1) × 10^−4 s−1,(1.0 ± 0.0) × 10^2 M^−1 s^−1,(4.6 ± 1.1) × 10^−4 s−1,(1.2 ± 0.0) × 10^3 M^−1 s^−1,(2.9 ± 0.3) × 10^−3 s−1,activity against KPC-2 (in words) (KPC-2; summary of Tables 1 and 2): displayed activity; activity against CTX-M-15 (in words) (CTX-M-15; summary of Tables 1 and 2): displayed activity

# Source: patent US20210300926A1, “NEW BETA-LACTAMASE INHIBITORS TARGETING GRAM NEGATIVE BACTERIA” (priority 2017, published 2021)
